Columns and labels:
Assay in all cases: Test D postemergence controlled growth environment test
Format in all cases: in vivo
[1] = test system: lambsquarters (Chenopodium album)
Excerpt: (§1) Seeds of plant species selected from blackgrass (Alopecurus myosuroides), galium (catchweed bedstraw, Galium aparine), kochia (Kochia scoparia), oilseed rape (Brassica napus), barley, spring (Hordeum vulgare), wheat, spring (Triticum aestivum), oat, wild (Avena fatua), barley, winter (Hordeum vulgare) and wheat, winter (Triticum aestivum) were planted into a silt loam soil and treated preemergence with test chemicals formulated in a non-phytotoxic solvent mixture which included a surfactant.
(§2) At the same time, plants selected from these crop and weed species and also bluegrass (annual bluegrass, Poa annua), canarygrass (littleseed canarygrass, Phalaris minor), chickweed (common chickweed, Stellaria media), bromegrass, downy (downy bromegrass, Bromus tectorum), field poppy (Papaver rhoeas), field violet (Viola arvensis), foxtail, green (Setaria viridis), deadnettle (henbit deadnettle, Lamium amplexicaule), ryegrass, Italian (Lolium multiflorum), lambsquarters (Chenopodium album), pigweed (Amaranthus retroflexus), chamomile (scentless chamomile, Matricaria inodora), Russian thistle (Salsola kali), speedwell (bird's-eye speedwell, Veronica persica), buckwheat, wild (Polygonum convolvulus), mustard, wild (Sinapis arvensis), radish, wild (Raphanus raphanistrum), windgrass (Apera spica-venti), geranium, cutleaf (Geranium dissectum) and Canada thistle (Cirsium arvense) were planted in pots containing Redi-Earth® planting medium (Scotts Company, 14111 Scottslawn Road, Marysville, Ohio 43041) comprising spaghnum peat moss, vermiculite, wetting agent and starter nutrients and treated with postemergence applications of the test chemicals formulated in the same manner. Plants ranged in height from 2 to 18 cm (1- to 4-leaf stage). Treated plants and controls were maintained in a controlled growth environment for 14 to 21 d after which time all species were compared to controls and visually evaluated. Plant response ratings, summarized in Table D, are based on a scale of 0 to 100 where 0 is no effect and 100 is complete control. A dash (-) response means no test result.

[2] = test system: ryegrass, Italian (Lolium multiflorum)
Excerpt: as §1, §2

[3] = test system: deadnettle (henbit deadnettle, Lamium amplexicaule)
Excerpt: as §1, §2

[4] = test system: field poppy (Papaver rhoeas)
Excerpt: as §1, §2

[5] = test system: Russian thistle (Salsola kali)
Excerpt: as §1, §2

[6] = test system: bluegrass (annual bluegrass, Poa annua)
Excerpt: as §1, §2

[7] = test system: Canada thistle (Cirsium arvense)
Excerpt: as §1, §2

[8] = test system: mustard, wild (Sinapis arvensis)
Excerpt: as §1, §2

[9] = test system: chickweed (common chickweed, Stellaria media)
Excerpt: as §1, §2

[10] = test system: foxtail, green (Setaria viridis)
Excerpt: as §1, §2

[11] = test system: buckwheat, wild (Polygonum convolvulus)
Excerpt: as §1, §2

[12] = test system: speedwell (bird's-eye speedwell, Veronica persica)
Excerpt: as §1, §2

[13] = test system: pigweed (Amaranthus retroflexus)
Excerpt: as §1, §2

[14] = test system: canarygrass (littleseed canarygrass, Phalaris minor)
Excerpt: as §1, §2

[15] = test system: radish, wild (Raphanus raphanistrum)
Excerpt: as §1, §2

[16] = test system: bromegrass, downy (downy bromegrass, Bromus tectorum)
Excerpt: as §1, §2

[17] = test system: geranium, cutleaf (Geranium dissectum)
Excerpt: as §1, §2

Cc1ccc2ccc(C)c(-c3c(O)c(Cl)nn(C)c3=O)c2c1 [Cpd. No. 20, 6-chloro-4-(2,7-dimethyl-1-naphthalenyl)-5-hydroxy-2-methyl-3(2H)-pyridazinone]
Plant response rating, Lambsquarters ([1]; 16 g ai/ha): 90
Plant response rating, Lambsquarters ([1]; 31 g ai/ha): 95
Plant response rating, Lambsquarters ([1]; 62 g ai/ha): 90
Plant response rating, Lambsquarters ([1]; 125 g ai/ha): 98
Plant response rating, Ryegrass, Italian ([2]; 16 g ai/ha): 65
Plant response rating, Ryegrass, Italian ([2]; 31 g ai/ha): 75
Plant response rating, Ryegrass, Italian ([2]; 62 g ai/ha): 80
Plant response rating, Ryegrass, Italian ([2]; 125 g ai/ha): 90
Plant response rating, Deadnettle ([3]; 16 g ai/ha): 35
Plant response rating, Deadnettle ([3]; 31 g ai/ha): 80
Plant response rating, Deadnettle ([3]; 62 g ai/ha): 85
Plant response rating, Deadnettle ([3]; 125 g ai/ha): 95
Plant response rating, Field Poppy ([4]; 16 g ai/ha): 80
Plant response rating, Field Poppy ([4]; 31 g ai/ha): 85
Plant response rating, Field Poppy ([4]; 62 g ai/ha): 100
Plant response rating, Field Poppy ([4]; 125 g ai/ha): 100
Plant response rating, Russian Thistle ([5]; 16 g ai/ha): 80
Plant response rating, Russian Thistle ([5]; 31 g ai/ha): 75
Plant response rating, Russian Thistle ([5]; 62 g ai/ha): 80
Plant response rating, Russian Thistle ([5]; 125 g ai/ha): 85
Plant response rating, Bluegrass ([6]; 16 g ai/ha): 0
Plant response rating, Bluegrass ([6]; 31 g ai/ha): 5
Plant response rating, Bluegrass ([6]; 62 g ai/ha): 5
Plant response rating, Bluegrass ([6]; 125 g ai/ha): 10
Plant response rating, Canada Thistle ([7]; 16 g ai/ha): 75
Plant response rating, Canada Thistle ([7]; 31 g ai/ha): 85
Plant response rating, Canada Thistle ([7]; 62 g ai/ha): 95
Plant response rating, Canada Thistle ([7]; 125 g ai/ha): 95
Plant response rating, Mustard, Wild ([8]; 16 g ai/ha): 20
Plant response rating, Mustard, Wild ([8]; 31 g ai/ha): 25
Plant response rating, Mustard, Wild ([8]; 62 g ai/ha): 30
Plant response rating, Mustard, Wild ([8]; 125 g ai/ha): 60
Plant response rating, Chickweed ([9]; 16 g ai/ha): 99
Plant response rating, Chickweed ([9]; 31 g ai/ha): 99
Plant response rating, Chickweed ([9]; 62 g ai/ha): 100
Plant response rating, Chickweed ([9]; 125 g ai/ha): 100
Plant response rating, Foxtail, Green ([10]; 16 g ai/ha): 85
Plant response rating, Foxtail, Green ([10]; 31 g ai/ha): 90
Plant response rating, Foxtail, Green ([10]; 62 g ai/ha): 95
Plant response rating, Foxtail, Green ([10]; 125 g ai/ha): 98
Plant response rating, Buckwheat, Wild ([11]; 16 g ai/ha): 100
Plant response rating, Buckwheat, Wild ([11]; 31 g ai/ha): 98
Plant response rating, Buckwheat, Wild ([11]; 62 g ai/ha): 99
Plant response rating, Buckwheat, Wild ([11]; 125 g ai/ha): 100
Plant response rating, Speedwell ([12]; 16 g ai/ha): 50
Plant response rating, Speedwell ([12]; 31 g ai/ha): 60
Plant response rating, Speedwell ([12]; 62 g ai/ha): 80
Plant response rating, Speedwell ([12]; 125 g ai/ha): 85
Plant response rating, Pigweed ([13]; 16 g ai/ha): 98
Plant response rating, Pigweed ([13]; 31 g ai/ha): 98
Plant response rating, Pigweed ([13]; 62 g ai/ha): 100
Plant response rating, Pigweed ([13]; 125 g ai/ha): 100
Plant response rating, Canarygrass ([14]; 16 g ai/ha): 10
Plant response rating, Canarygrass ([14]; 31 g ai/ha): 15
Plant response rating, Canarygrass ([14]; 62 g ai/ha): 20
Plant response rating, Canarygrass ([14]; 125 g ai/ha): 35
Plant response rating, Radish, Wild ([15]; 16 g ai/ha): 0
Plant response rating, Radish, Wild ([15]; 31 g ai/ha): 0
Plant response rating, Radish, Wild ([15]; 62 g ai/ha): 15
Plant response rating, Radish, Wild ([15]; 125 g ai/ha): 25
Plant response rating, Bromegrass, Downy ([16]; 16 g ai/ha): 0
Plant response rating, Bromegrass, Downy ([16]; 31 g ai/ha): 5
Plant response rating, Bromegrass, Downy ([16]; 62 g ai/ha): 10
Plant response rating, Bromegrass, Downy ([16]; 125 g ai/ha): 25
Plant response rating, Geranium, Cutleaf ([17]; 16 g ai/ha): 65
Plant response rating, Geranium, Cutleaf ([17]; 31 g ai/ha): 75
Plant response rating, Geranium, Cutleaf ([17]; 62 g ai/ha): 80
Plant response rating, Geranium, Cutleaf ([17]; 125 g ai/ha): 85
